Assay results reported in publication PMC10298982, “Stability Characterization of the Novel Anti-Cancer HM-10/10 HDL-Mimetic Peptide” (International Journal of Molecular Sciences, 2023).
Ends that are not written are not given here.

Legend:
[1] = Metabolic stability in cryopreserved cynomolgus monkey hepatocytes; format: in vitro ADME; settings: Cynomolgus monkey hepatocytes 0.5 million cells/mL
[2] = CYP450 time-dependent inhibition, all isoenzymes together; format: in vitro ADME, human; settings: all isoenzymes; +/− NADPH, with and without 30-min preincubation; read-out: Inhibition of CYP450 isoenzymes at 50 µM (maximum test concentration)
[3] = target: CYP2C9 (Homo sapiens, UniProt P11712); settings: microsomes
Sequence of CYP2C9 (P11712 whole entry): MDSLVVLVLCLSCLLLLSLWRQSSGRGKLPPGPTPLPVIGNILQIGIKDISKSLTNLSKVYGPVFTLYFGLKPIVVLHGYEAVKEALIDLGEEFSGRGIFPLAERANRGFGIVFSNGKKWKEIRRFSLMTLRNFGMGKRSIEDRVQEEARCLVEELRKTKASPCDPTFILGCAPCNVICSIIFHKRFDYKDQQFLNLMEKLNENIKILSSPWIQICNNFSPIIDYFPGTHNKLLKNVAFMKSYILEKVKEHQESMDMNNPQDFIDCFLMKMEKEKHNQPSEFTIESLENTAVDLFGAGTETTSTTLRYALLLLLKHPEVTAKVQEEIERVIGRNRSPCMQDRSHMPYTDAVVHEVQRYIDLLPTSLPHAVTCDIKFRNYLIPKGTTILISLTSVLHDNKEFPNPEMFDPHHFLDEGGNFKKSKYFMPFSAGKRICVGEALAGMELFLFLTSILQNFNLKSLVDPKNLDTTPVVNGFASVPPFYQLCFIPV

[4] = Metabolic stability in cynomolgus monkey liver microsomes; format: in vitro ADME; settings: for CLint scaled: cynomolgus monkey, microsomes, Cynomolgus monkey liver microsomes 0.5 mg protein/mL, 2 μM

- CLint scaled ([1]; 2 μM): 465 mL/min/kg
- half-life at 2 µM ([1]; cryopreserved hepatocytes): 12.1 min
- remaining at 0.5 h, 2 µM ([1]; cryopreserved hepatocytes, read-out: % Remaining at 30 min): 18.5%
- inhibition at 50 µM [2]: -26.4 to 42.2%
- % Inhibition at 50 µM No PI + NADPH [3]: 8.6%
- % Inhibition at 50 µM No PI − NADPH [3]: 0.4%
- % Inhibition at 50 µM PI + NADPH [3]: 1.7%
- % Inhibition at 50 µM PI − NADPH [3]: 0.5%
- CLint scaled ([4]; read-out: CLint (L/hr/kg) (converted)): 5.15 L/h/kg
- CLint scaled ([4]; read-out: CLint (mL/min/kg)): 5.15 L/h/kg
- half-life at 2 µM ([4]; pooled liver microsomes, pH 7.4, Cynomolgus monkey liver microsomes 0.5 mg protein/mL): 21.8 min
- remaining at 2 h, 2 µM ([4]; pooled liver microsomes, pH 7.4, Cynomolgus monkey liver microsomes 0.5 mg protein/mL, read-out: % Remaining at 120 min): 0.8%
Sequence: LRKLRKRLLRLVGRQLEEFL [HM-10/10, LRKLRKRLLRLVGRQLEEFL]
